The results in this text go back to patent US12084419B2, “Cell metabolism modulating compounds and uses thereof” (CRESCENTA BIOSCIENCES, priority 2020, dated 2024).

This experiment deals with T1, His6 tagged human recombinant FABP4 (Homo sapiens, UniProt P15090).
T1 construct: purchased Cayman Chemicals 10009549
The experiment in a line: FABP4 TR-FRET assay: displacement of BODIPY FL C12 fatty acid. The note with it: triplicates, inhibition of BODIPY FL C12 binding; for inhibition at 10 µM: 10 μM compound; for inhibition at 1 µM: 1 μM compound. The procedure, abridged: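 TR-FRET with a Tb anti-His6 antibody donor and BODIPY FL C12 as acceptor; compounds came from 0.362 and 0.0362 mM DMSO stocks. Protein (83 nM) and antibody (49.6 nM) solutions were premixed 30 min on ice in 25 mM Tris pH 7.4 with γ-globulins, NP-40 and DTT. Incubation was 10 min at room temperature; inhibition came from the 520/615 nm ratio.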
A general note: In TR-FRET formats the signal depends on donor and acceptor labels being close together.

The structures appear in SMILES notation.

Broadly, the inhibition is the drop in the measured response relative to a control, in per cent.

T1 sequence (P15090 whole entry): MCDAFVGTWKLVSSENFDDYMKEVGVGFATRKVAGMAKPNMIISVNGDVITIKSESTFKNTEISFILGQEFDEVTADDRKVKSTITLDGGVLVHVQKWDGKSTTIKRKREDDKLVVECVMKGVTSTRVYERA

For `CCCCCCC1CCCc2c(n(Cc3cccc(OC)c3)c3c(C(=O)O)cccc23)C1` (stereo not shown) [7-hexyl-5-[(3-methoxyphenyl)methyl]-5H,6H,7H,8H,9H,10H-cyclohepta[b]indole-4-carboxylic acid], the inhibition at 10 µM was determined as 93.6%.

As for `CCCCCCC1CCCc2c(n(Cc3cccc(C)c3)c3c(C(=O)O)cccc23)C1` (stereo not shown) [7-hexyl-5-[(3-methylphenyl)methyl]-5H,6H,7H,8H,9H,10H-cyclohepta[b]indole-4-carboxylic acid], the inhibition at 1 µM worked out at 98.6% and the inhibition at 10 µM came to 94.7%.

As to `CCCCCCC1CCCc2c(n(Cc3ccc(C)cc3)c3c(C(=O)O)cccc23)C1` (stereo not shown) [7-hexyl-5-[(4-methylphenyl)methyl]-5H,6H,7H,8H,9H,10H-cyclohepta[b]indole-4-carboxylic acid], the inhibition at 1 µM worked out at 95.6% and the inhibition at 10 µM was determined as 91.7%. On the same counts, the results for `CCCCCCC1CCCc2c(n(Cc3cccnc3)c3c(C(=O)O)cccc23)C1` (stereo not shown) [7-hexyl-5-[(pyridin-3-yl)methyl]-5H,6H,7H,8H,9H,10H-cyclohepta[b]indole-4-carboxylic acid] are 105% and 97.3%.

With `CCCCCCC1CCCc2c(n(Cc3ccnc(C(F)(F)F)c3)c3c(C(=O)O)cccc23)C1` (stereo not shown) [7-hexyl-5-{[2-(trifluoromethyl)pyridin-4-yl]methyl}-5H,6H,7H,8H,9H,10H-cyclohepta[b]indole-4-carboxylic acid], the inhibition at 1 µM was found to be 87.6% and the inhibition at 10 µM is 94.7%. For `CCCCCCC1CCCc2c(n(Cc3cccc(C(F)(F)F)n3)c3c(C(=O)O)cccc23)C1` (stereo not shown) [7-hexyl-5-{[6-(trifluoromethyl)pyridin-2-yl]methyl}-5H,6H,7H,8H,9H,10H-cyclohepta[b]indole-4-carboxylic acid], the inhibition at 10 µM worked out at 79.8%. Take `CCCCCCC1CCc2c(n(Cc3ccccc3C(N)=O)c3c(C(=O)O)cccc23)C1` (stereo not shown) [9-[(2-carbamoylphenyl)methyl]-2-hexyl-2,3,4,9-tetrahydro-1H-carbazole-8-carboxylic acid]: the inhibition at 1 µM stood at 31.1% and the inhibition at 10 µM is 80.7%. On the same counts, the results for `CCCCCCC1CCc2c(n(Cc3ccccc3C#N)c3c(C(=O)O)cccc23)C1` (stereo not shown) [9-[(2-cyanophenyl)methyl]-2-hexyl-2,3,4,9-tetrahydro-1H-carbazole-8-carboxylic acid] are 87.3% and 92.7%.

With `CCCCCCC1CCc2c(n(Cc3ccccc3F)c3c(C(=O)O)cccc23)C1` (stereo not shown) [9-[(2-fluorophenyl)methyl]-2-hexyl-2,3,4,9-tetrahydro-1H-carbazole-8-carboxylic acid], the inhibition at 1 µM is 81.8% and the inhibition at 10 µM was 84.9%. The corresponding values for `CCCCCOC1CCCc2c1n(Cc1cccc(C(N)=O)c1)c1c(C(=O)O)cccc21` (stereo not shown) [9-[(3-carbamoylphenyl)methyl]-1-(pentyloxy)-2,3,4,9-tetrahydro-1H-carbazole-8-carboxylic acid] are 81.9% and 100%.

In the case of `CCC1CCCc2c1n(Cc1cccc(C(N)=O)c1)c1c(C(=O)O)cccc21` (stereo not shown) [9-[(3-carbamoylphenyl)methyl]-1-ethyl-2,3,4,9-tetrahydro-1H-carbazole-8-carboxylic acid], the inhibition at 1 µM was found to be 90.3% and the inhibition at 10 µM is 95.9%.

Take `CCCOC1CCCc2c1n(Cc1cccc(C(N)=O)c1)c1c(C(=O)O)cccc21` (stereo not shown) [9-[(3-carbamoylphenyl)methyl]-1-propoxy-2,3,4,9-tetrahydro-1H-carbazole-8-carboxylic acid]: the inhibition at 1 µM was found to be 57.6% and the inhibition at 10 µM amounted to 92%.

As for `NC(=O)c1cccc(Cn2c3c(c4cccc(C(=O)O)c42)CCC(CCc2ccccc2)C3)c1` (stereo not shown) [9-[(3-carbamoylphenyl)methyl]-2-(2-phenylethyl)-2,3,4,9-tetrahydro-1H-carbazole-8-carboxylic acid], the inhibition at 1 µM was found to be 98.4% and the inhibition at 10 µM was determined as 94.1%. Regarding `CCC1CCc2c(n(Cc3cccc(C(N)=O)c3)c3c(C(=O)O)cccc23)C1` (stereo not shown) [9-[(3-carbamoylphenyl)methyl]-2-ethyl-2,3,4,9-tetrahydro-1H-carbazole-8-carboxylic acid], the inhibition at 1 µM was 85.5% and the inhibition at 10 µM was 101%. The corresponding values for `CCCCCCC1CCc2c(n(Cc3cccc(C(N)=O)c3)c3c(C(=O)O)cccc23)C1` (stereo not shown) [9-[(3-carbamoylphenyl)methyl]-2-hexyl-2,3,4,9-tetrahydro-1H-carbazole-8-carboxylic acid] are 92.8% and 90.5%. On the same counts, the results for `CCCCCC1CCc2c(n(Cc3cccc(C(N)=O)c3)c3c(C(=O)O)cccc23)C1` (stereo not shown) [9-[(3-carbamoylphenyl)methyl]-2-pentyl-2,3,4,9-tetrahydro-1H-carbazole-8-carboxylic acid] are 75% and 67%.

Regarding `CCCC1CCc2c(n(Cc3cccc(C(N)=O)c3)c3c(C(=O)O)cccc23)C1` (stereo not shown) [9-[(3-carbamoylphenyl)methyl]-2-propyl-2,3,4,9-tetrahydro-1H-carbazole-8-carboxylic acid], the inhibition at 1 µM was found to be 83.6% and the inhibition at 10 µM was 88%. With `CCC1CCc2c(c3cccc(C(=O)O)c3n2Cc2cccc(C(N)=O)c2)C1` (stereo not shown) [9-[(3-carbamoylphenyl)methyl]-3-ethyl-2,3,4,9-tetrahydro-1H-carbazole-8-carboxylic acid], the inhibition at 1 µM turned out to be 98.2% and the inhibition at 10 µM was found to be 103%.

With `CCCCCC1CCc2c(c3cccc(C(=O)O)c3n2Cc2cccc(C(N)=O)c2)C1` (stereo not shown) [9-[(3-carbamoylphenyl)methyl]-3-pentyl-2,3,4,9-tetrahydro-1H-carbazole-8-carboxylic acid], the inhibition at 1 µM came to 90.9% and the inhibition at 10 µM was determined as 98.4%.

As for `CCCC1CCc2c(c3cccc(C(=O)O)c3n2Cc2cccc(C(N)=O)c2)C1` (stereo not shown) [9-[(3-carbamoylphenyl)methyl]-3-propyl-2,3,4,9-tetrahydro-1H-carbazole-8-carboxylic acid], the inhibition at 1 µM turned out to be 87.3% and the inhibition at 10 µM amounted to 99.2%. On the same counts, the results for `NC(=O)c1cccc(Cn2c3c(c4cccc(C(=O)O)c42)C(CCc2ccccc2)CCC3)c1` (stereo not shown) [9-[(3-carbamoylphenyl)methyl]-4-(2-phenylethyl)-2,3,4,9-tetrahydro-1H-carbazole-8-carboxylic acid] are 44.1% and 77.9%. In the case of `CCC1CCCc2c1c1cccc(C(=O)O)c1n2Cc1cccc(C(N)=O)c1` (stereo not shown) [9-[(3-carbamoylphenyl)methyl]-4-ethyl-2,3,4,9-tetrahydro-1H-carbazole-8-carboxylic acid], the inhibition at 1 µM came out at 87% and the inhibition at 10 µM is 102%. Regarding `CCCCCC1CCCc2c1c1cccc(C(=O)O)c1n2Cc1cccc(C(N)=O)c1` (stereo not shown) [9-[(3-carbamoylphenyl)methyl]-4-pentyl-2,3,4,9-tetrahydro-1H-carbazole-8-carboxylic acid], the inhibition at 1 µM was determined as 42.6% and the inhibition at 10 µM came to 84.4%. For `CCCC1CCCc2c1c1cccc(C(=O)O)c1n2Cc1cccc(C(N)=O)c1` (stereo not shown) [9-[(3-carbamoylphenyl)methyl]-4-propyl-2,3,4,9-tetrahydro-1H-carbazole-8-carboxylic acid], the inhibition at 1 µM was 53.9% and the inhibition at 10 µM was found to be 90%.
